Values joined by “and” are separate entries in the source; they are usually repeats but may differ in a detail not shown here. Identical values can stand only once. Inconclusive results and toxic doses are left out. Cut-off read from the data, not from the text of the source: active = T/C of 150% or more; inactive = T/C below 125%.
System: L1210 leukemia ip in BDF1 mice, survival T/C
Experiment: NCI In Vivo Anticancer Drug Screen. Data for tumor model L1210 Leukemia (intraperitoneal) in B6D2F1 (BDF1) mice
Details: endpoint: mean survival time, higher = longer survival
Outline: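 In this screen, tumor-bearing mice given compound are compared to those given vehicle, and their survival values are reported as a treated-to-control quotient.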

[1] = dose: 100.0 mg/kg/injection, schedule: Q01DX009 (ip), vehicle: saline
[2] = dose: 100.0 mg/kg/injection, schedule: Q04DX003 (ip), vehicle: saline
[3] = dose: 200.0 mg/kg/injection, schedule: Q01DX009 (ip), vehicle: saline
[4] = dose: 200.0 mg/kg/injection, schedule: Q04DX003 (ip), vehicle: saline
[5] = dose: 400.0 mg/kg/injection, schedule: Q04DX003 (ip), vehicle: saline
[6] = dose: 50.0 mg/kg/injection, schedule: Q01DX009 (ip), vehicle: Klucel (hydroxypropylcellulose) (HPC)
[7] = dose: 100.0 mg/kg/injection, schedule: Q01DX009 (ip), vehicle: Klucel (hydroxypropylcellulose) (HPC)
[8] = dose: 100.0 mg/kg/injection, schedule: Q01DX009 (ip), vehicle: saline with Tween-80
[9] = dose: 100.0 mg/kg/injection, schedule: Q04DX003 (ip), vehicle: saline with Tween-80
[10] = dose: 200.0 mg/kg/injection, schedule: Q01DX009 (ip), vehicle: saline with Tween-80
[11] = dose: 200.0 mg/kg/injection, schedule: Q04DX003 (ip), vehicle: saline with Tween-80
[12] = dose: 400.0 mg/kg/injection, schedule: Q01DX009 (ip), vehicle: saline with Tween-80
[13] = dose: 400.0 mg/kg/injection, schedule: Q04DX003 (ip), vehicle: saline with Tween-80
[14] = dose: 100.0 mg/kg/injection, schedule: Q01DX001 (ip), vehicle: saline
[15] = dose: 200.0 mg/kg/injection, schedule: Q01DX001 (ip), vehicle: saline

Measured: T/C

N=C(N)c1ccc(OCCCOc2ccc(C(=N)N)cc2Br)c(Br)c1
inactive: dose: 6.25 mg/kg/injection, schedule: Q01DX009 (ip), vehicle: saline 100 % of control | dose: 6.25 mg/kg/injection, schedule: Q04DX003 (ip), vehicle: saline 99 % of control | dose: 12.5 mg/kg/injection, schedule: Q01DX009 (ip), vehicle: saline 115 % of control | dose: 12.5 mg/kg/injection, schedule: Q04DX003 (ip), vehicle: saline 99 % of control | dose: 16.5 mg/kg/injection, schedule: Q01DX009 (ip), vehicle: saline 123 % of control | dose: 18.0 mg/kg/injection, schedule: Q01DX Z (ip), vehicle: methylcellulose (MC) 110 % of control | dose: 25.0 mg/kg/injection, schedule: Q04DX003 (ip), vehicle: saline 92 % of control | dose: 27.0 mg/kg/injection, schedule: Q01DX Z (ip), vehicle: methylcellulose (MC) 113 % of control | dose: 37.5 mg/kg/injection, schedule: Q01DX009 (ip), vehicle: saline 107 % of control | dose: 40.0 mg/kg/injection, schedule: Q01DX Z (ip), vehicle: methylcellulose (MC) 103 % of control | dose: 60.0 mg/kg/injection, schedule: Q01DX Z (ip), vehicle: methylcellulose (MC) 113 % of control

Cc1ccc(NC2CNC(=O)NC2=O)cc1 (stereo unspecified)
inactive: dose: 100.0 mg/kg/injection, schedule: Q01DX Z (ip), vehicle: methylcellulose (MC) 100 % of control | dose: 200.0 mg/kg/injection, schedule: Q01DX Z (ip), vehicle: methylcellulose (MC) 93 % of control

CCCN=C(N)C(N)=NCCC
inactive: [1] 91 % of control | [2] 98 % of control | [3] 92 % of control | [4] 98 % of control | [5] 91 % of control

C=C/C(C)=C/[C@H](C)C(=O)C[C@H](O)CC1CC(=O)NC(=O)C1
inactive: dose: 12.5 mg/kg/injection, schedule: Q01DX009 (ip), vehicle: saline with Tween-80 109 % of control | dose: 25.0 mg/kg/injection, schedule: Q01DX009 (ip), vehicle: Klucel (hydroxypropylcellulose) (HPC) 113 % of control | dose: 25.0 mg/kg/injection, schedule: Q01DX009 (ip), vehicle: saline with Tween-80 120 % of control | [6] 122 % of control | dose: 50.0 mg/kg/injection, schedule: Q01DX009 (ip), vehicle: saline with Tween-80 119 % of control | [7] 90 % of control | [8] 123 % of control

COc1ccccc1NC(=O)Nc1cc(C)cc(C)n1
inactive: [8] 101 % of control | [9] 97 % of control | [10] 98 % of control | [11] 97 % of control | [12] 104 % of control | [13] 101 % of control

CC(=O)OCc1ccc[nH]c1=O
inactive: [2] 104 % of control | [4] 98 % of control | [5] 104 % of control

N#CC(C#N)C1c2ccccc2C([N+](=O)[O-])c2ccccc21 (stereo unspecified)
inactive: [8] 103 % of control | [9] 88 % of control | [10] 96 % of control | [11] 93 % of control | [12] 98 % of control | [13] 101 % of control

O=C1c2ccccc2C(Br)(c2ccccc2)C1Br (stereo unspecified)
inactive: dose: 12.5 mg/kg/injection, schedule: Q01DX009 (ip), vehicle: other 93 % of control | dose: 25.0 mg/kg/injection, schedule: Q01DX009 (ip), vehicle: other 89 % of control

Clc1ccc(C2=Nc3cccc4cccc(c34)N2)cc1Cl
inactive: dose: 15.0 mg/kg/injection, schedule: Q01DX Z (ip), vehicle: saline 97 % of control | dose: 30.0 mg/kg/injection, schedule: Q01DX Z (ip), vehicle: saline 105 % of control | dose: 60.0 mg/kg/injection, schedule: Q01DX Z (ip), vehicle: saline 100 % of control | dose: 60.0 mg/kg/injection, schedule: Q01DX Z (oral), vehicle: saline 91 % of control | dose: 120.0 mg/kg/injection, schedule: Q01DX Z (oral), vehicle: saline 96 % of control | dose: 240.0 mg/kg/injection, schedule: Q01DX Z (oral), vehicle: saline 94 % of control | dose: 480.0 mg/kg/injection, schedule: Q01DX Z (oral), vehicle: saline 98 % of control

O=C1CCSCC1
inactive: [14] 107 % of control | [1] 100 % of control | [2] 100 % of control | [15] 104 % of control | [3] 95 % of control | [4] 101 % of control | dose: 400.0 mg/kg/injection, schedule: Q01DX001 (ip), vehicle: saline 95 % of control | dose: 400.0 mg/kg/injection, schedule: Q01DX009 (ip), vehicle: saline 95 % of control | [5] 104 % of control

CCN(CC)P1(=O)NCCCO1 (stereo unspecified)
inactive: [8] 87 % of control | [10] 94 % of control | [12] 92 % of control

Cc1ccc(C)c(NC(=O)NCCN(C)c2ccccc2)c1
inactive: dose: 100.0 mg/kg/injection, schedule: Q01DX001 (ip), vehicle: saline with Tween-80 96 % of control | [8] 87 % of control | dose: 100.0 mg/kg/injection, schedule: Q04DX002 (ip), vehicle: saline with Tween-80 89 % of control and 91 % of control | dose: 200.0 mg/kg/injection, schedule: Q01DX001 (ip), vehicle: saline with Tween-80 93 % of control | [10] 89 % of control | dose: 200.0 mg/kg/injection, schedule: Q04DX002 (ip), vehicle: saline with Tween-80 89 % of control and 91 % of control | dose: 400.0 mg/kg/injection, schedule: Q01DX001 (ip), vehicle: saline with Tween-80 92 % of control | [12] 101 % of control | dose: 400.0 mg/kg/injection, schedule: Q04DX002 (ip), vehicle: saline with Tween-80 89 % of control and 91 % of control

Cc1cc(C(=O)O)c(C)n1-c1ccccc1C(=O)O
inactive: [6] 102 % of control | dose: 100.0 mg/kg/injection, schedule: Q01DX001 (ip), vehicle: Klucel (hydroxypropylcellulose) (HPC) 103 % of control | [7] 89 % of control | dose: 200.0 mg/kg/injection, schedule: Q01DX001 (ip), vehicle: Klucel (hydroxypropylcellulose) (HPC) 92 % of control | dose: 200.0 mg/kg/injection, schedule: Q01DX009 (ip), vehicle: Klucel (hydroxypropylcellulose) (HPC) 93 % of control | dose: 400.0 mg/kg/injection, schedule: Q01DX001 (ip), vehicle: Klucel (hydroxypropylcellulose) (HPC) 94 % of control

CCCCCC(CN(C)C)C(=O)/C=C/c1ccccc1 (stereo unspecified)
inactive: dose: 50.0 mg/kg/injection, schedule: Q01DX009 (sc), vehicle: other 95 % of control | dose: 100.0 mg/kg/injection, schedule: Q01DX001 (sc), vehicle: steriod suspending solution 93 % of control | dose: 100.0 mg/kg/injection, schedule: Q01DX009 (sc), vehicle: other 102 % of control | dose: 100.0 mg/kg/injection, schedule: Q04DX003 (sc), vehicle: other 101 % of control | dose: 200.0 mg/kg/injection, schedule: Q01DX001 (sc), vehicle: steriod suspending solution 93 % of control | dose: 200.0 mg/kg/injection, schedule: Q04DX003 (sc), vehicle: other 90 % of control | dose: 400.0 mg/kg/injection, schedule: Q01DX001 (sc), vehicle: steriod suspending solution 100 % of control

CC1COCCN1 (stereo unspecified)
inactive: dose: 50.0 mg/kg/injection, schedule: Q01DX001 (ip), vehicle: saline 91 % of control | [14] 97 % of control | [15] 100 % of control

COC1(OC)C2CCC1(Cl)C(Cl)=C2Cl (stereo unspecified)
inactive: [8] 95 % of control | [9] 93 % of control | [10] 92 % of control | [11] 91 % of control | [12] 89 % of control
